Test system: pro-inflammatory cytokine IL-6
Assay: Test 1: IL-6 secretion by stress-induced senescent fibroblasts (ELISA)
Type: cell-based, human
Method: Experimentally, the test was carried out on primary human fibroblasts (abbreviation “NHDF” for “Normal Human Dermal Fibroblasts”) isolated from breast plastic surgery from a patient. These NHDFs were cultured in a complete “DMEM” culture medium (with 4.5 g/l of glucose and 10% of fetal calf serum (FCS)), then maintained in an atmosphere at 37° C. and 10% of CO2. On D-2, the fibroblasts were seeded in 6-well plates at a rate of 1.10^4 cells/cm^2. On D0, the fibroblasts were subjected to stress inducing premature senescence ([…] hydrogen peroxide, H2O2, for 2 hours), then incubated at 37° C. and 10% CO2 for 72 hours in order to leave senescence settle. On D+3, these senescent fibroblasts induced by such stress (abbreviation “SIPS-fibro” for “Stress-Induced Premature Senescent-fibroblasts”) were incubated for 24 hours in the presence of different weight ratios of wogonin to baicalein (abbreviation “W/B”) of synthetic origin. On D+4, the culture supernatants were harvested in order to perform an ELISA assay for the pro-inflammatory cytokine IL-6 (“R&DSystem kit, ref. D6050”). The results obtained were then normalized with respect to the quantity of cells per condition and subjected to statistical analysis in triplicate. The results are collated in Table 1 below, in particular expressed as % inhibition of IL-6 secretion relative to the senescent control.

For `COc1c(O)cc(O)c2c(=O)cc(-c3ccccc3)oc12` [wogonine, 5,7-dihydroxy-8-methoxyflavone], the “% inhibition of IL-6 secretion” value (relative to the senescent control, senescent NHDF, 24 hours) was −10% and the “Amount of IL-6 secreted” value (senescent NHDF (H2O2 stress), incubated 24 hours with compound, ELISA) was 9.1 ng/10^6 cells.
